Laboratory results published in ChEMBL document CHEMBL1148602, “Synthesis and biological evaluation of new pentaphyrin macrocycles for photodynamic therapy” (J Med Chem, 2006).
In brackets after ≈: the same amount, converted by molar mass. Activity calls are given as the source filed them. No cut-off for these calls is given here.

Experiments:
Assay type in all cases: functional, cell-based
K562 [1] = assay: Cytotoxicity against human chronic myelogenous leukemia K562 cell line without light irradiation by MTT assay at 3-12 ug/ml
IMR-90 [2] = assay: Cytotoxicity against human transformed fibroblast IMR90 E1A cell line without light irradiation by MTT assay at 3-12 ug/ml
K562 [3] = assay: Cytotoxicity against human chronic myelogenous leukemia K562 cell line irradiated with white light at the fluence of 15 J/cm2; conditions: K562, light or radiation study
IMR-90 [4] = assay: Cytotoxicity against human transformed fibroblast IMR90 E1A cell line irradiated with white light at the fluence of 15 J/cm2; conditions: IMR-90, light or radiation study
PANC-1 [5] = assay: Cytotoxicity against human pancreatic adenocarcinomas Panc1 cell line irradiated with white light at the fluence of 15 J/cm2; conditions: PANC-1, light or radiation study
HeLa [6] = assay: Cytotoxicity against human cervix adenocarcinomas HeLa cell line irradiated with white light at the fluence of 15 J/cm2; conditions: light or radiation study
K562 [7] = assay: Cytotoxicity against human chronic myelogenous leukemia K562 cell line irradiated with white light at the fluence of 30 J/cm2; conditions: K562, light or radiation study
IMR-90 [8] = assay: Cytotoxicity against human transformed fibroblast IMR90 E1A cell line irradiated with white light at the fluence of 30 J/cm2; conditions: IMR-90, light or radiation study
PANC-1 [9] = assay: Cytotoxicity against human pancreatic adenocarcinomas Panc1 cell line irradiated with white light at the fluence of 30 J/cm2; conditions: PANC-1, light or radiation study
HeLa [10] = assay: Cytotoxicity against human cervix adenocarcinomas HeLa cell line irradiated with white light at the fluence of 30 J/cm2; conditions: light or radiation study
IMR-90 [11] = assay: Effect on apoptotic fragmentation in IMR90 E1A cells at 3 ug/ml and irradiation at 8 mW/cm2 for 60 min; conditions: Homo sapiens
K562 [12] = assay: Effect on apoptotic fragmentation in K562 cells at 3 ug/ml and irradiation at 8 mW/cm2 for 60 min; conditions: Homo sapiens
HeLa [13] = assay: Internalization in cytoplasm in HeLa cells at 3 ug/ml for 24 hr by confocal microscopy after propidium iodide staining; conditions: Homo sapiens
K562 [14] = assay: Activation of Caspase 3 and 7 in K562 cells at 3 ug/ml and irradiation of 15 J/cm2 for 8 hrs; conditions: Homo sapiens
IMR90 EIA = assay: Activation of Caspase 3 and 7 in IMR90 EIA cells at 3 ug/ml and irradiation of 15 J/cm2 for 8 hrs; conditions: Homo sapiens

SMILES | Activity (K562 [1]) | Activity (IMR-90 [2]) | IC50 (K562 [3]) [µg/mL] | IC50 (IMR-90 [4]) [µg/mL] | IC50 (PANC-1 [5]) [µg/mL] | IC50 (HeLa [6]) [µg/mL] | IC50 (K562 [7]) [µg/mL] | IC50 (IMR-90 [8]) [µg/mL] | IC50 (PANC-1 [9]) [µg/mL] | IC50 (HeLa [10]) [µg/mL] | Activity (IMR-90 [11]) | Activity (K562 [12]) | Activity (HeLa [13]) | Activity (K562 [14]) | Activity (IMR90 EIA)
CCC1=C(C)C2=NC/1=C\c1[nH]c(c(CC)c1CC)/C=c1\[nH]/c(c(C)c1CC)=C\c1ccc([nH]1)/C(c1ccccc1)=c1/cc/c([nH]1)=C/2 | Toxic | Toxic | 3.6 (≈ 5.94 µM) | 4.2 (≈ 6.93 µM) | 9.8 (≈ 16.2 µM) | 5.8 (≈ 9.57 µM) | 2.9 (≈ 4.79 µM) | 3.2 (≈ 5.28 µM) | 4.6 (≈ 7.59 µM) | 3.8 (≈ 6.27 µM) | Active | Active | Active | Active | Active
CCC1=C(C)C2=NC/1=C\c1[nH]c(c(CC)c1CC)/C=c1\[nH]/c(c(C)c1CC)=C\C1=NC(C=C1)/C(c1ccccc1)=c1/cc/c([nH]1)=C/2 (stereo not given) | Toxic | Toxic | 2 (≈ 3.3 µM) | 4 (≈ 6.6 µM) | 9.7 (≈ 16 µM) | 4.8 (≈ 7.92 µM) | 1.5 (≈ 2.48 µM) | 2.3 (≈ 3.8 µM) | 3.9 (≈ 6.44 µM) | 2.6 (≈ 4.29 µM) | Active | Active | Active | Active | Active
